Laboratory results as given in patent US7259250B2, “C-nitroso compounds and use thereof” (Duke University, priority 2000, dated 2007).

Legend:
[1] = test system: rabbit aortic ring (smooth muscle); test: Relaxation of rabbit aortic ring (Example II, tension tracings FIGS. 1-10); format: cell-based
Description: The ability of various C-nitroso compounds as described below to relax a rabbit aortic ring (smooth muscle) was carried out as described in Stamler, J., et al., PNAS, Vol. 89, 444-448 (1992).
Results shown in FIGS. 1-10 which are tracings of force (tension) in the Y-direction versus time in the X-direction with downward direction indicating relaxation and upward direction indicating constriction. Concentrations of C-nitroso compound applied at time in the X-direction are indicated as 10^−9 (1 nanomolar), 10^−6 (1 micromolar), 10^−3 (1 milimolar), etc. “PE” on the figures means the application of phenylephrine, a constricting agent.

[2] = Water solubility (dissolves in water at least to 1 micromolar); format: physicochemical; settings: water-soluble = dissolves in water at least to 1 micromolar
Source text: As used herein, the term “water-soluble” means dissolves in water at least to provide a concentration of 1 micromolar.

person with angina = test: Example IV: patient case, angina with nitrate tolerance; format: in vivo, human
[3] = cited from earlier work
[4] = test system: person with arthritis, esophageal spasm, coronary artery disease, congestive heart failure, impotence and nightly urinary incontinence; test: Example III: patient case, ibuprofen partly given as nitrosoketoibuprofen; format: in vivo, human
[5] = compound alone, at micromolar concentration(s)

With `O=Nc1ccccc1` [C-nitrosobenzene] the “relaxation activity (in words)” value [1, 5] was “no activity”.
With `CC(C)(C)N=O` [2-methyl-2-nitrosopropane] the “relaxation activity (in words)” value ([1]; compound alone, at any of the concentrations used, FIG. 10) was “no relaxation effect activity” and the “water solubility (in words)” value [2] was “not water soluble”.
With `O=[N+]([O-])OCC(CO[N+](=O)[O-])O[N+](=O)[O-]` [nitroglycerin] the tolerance development (person with angina; angina treated with nitroglycerin) was “nitrate tolerance”.
For `CC(C)C(=O)c1ccc(C(C)C(=O)O)cc1` (centres unmarked) [2-(4′-isobutyrylphenyl)propionic acid], the “carbon acid pKa” value ([3]; of the named substance itself) is given as “about 20”.
In the case of `CCC(N=O)(C(C)=O)C(C)=O` [3-ethyl-3-nitroso-2,4-pentanedione], the “water solubility (in words)” value [2] is reported as “do not meet the definition of water solubility”.
In the case of C-nitrosophenol, the “relaxation activity (in words)” value [1, 5] is reported as “no activity”.
For `CC(=O)C1(C)CCC2CCCC[C@@H]2ON1O` (some centres unmarked) [Compound (135a)], the outcome of angina (person with angina; 20 μg/min continuously, after nitroglycerin stopped) was “relief of angina”.
With `CC(C(=O)O)c1ccc(C(=O)C(C)(C)[N+]([O-])=[N+]([O-])C(C)(C)C(=O)c2ccc(C(C)C(=O)O)cc2)cc1` (stereo not drawn) [nitrosoketoibuprofen, dimeric 2-[4′-(α-nitroso)isobutyrylphenyl]propionic acid] the “concentration at which relaxation effect is displayed” value ([1]; compound alone, FIGS. 5 and 6) was 10 nM, the “relaxation activity (in words)” value ([1]; compound alone, at concentration higher than 10 nanomolar, FIG. 6) was “not much more activity” and the “relaxation activity (in words)” value ([1]; in conjunction with 100 μM glutathione, FIG. 7) was “no activity”. For the same compound, the “activity (in words)” value ([1]; without glutathione, at nanomolar concentrations) was “therapeutically active” and the outcome of symptoms ([4]; ibuprofen 400 mg three times a day with 0.1% by weight of the drug as the dimeric nitrosoketoibuprofen) was “all symptoms are relieved”.
In the case of `CC(C)Cc1ccc(C(C)C(=O)O)cc1` (centres unmarked) [ibuprofen], the adverse effect ([4]; ibuprofen 400 mg, three times a day) is reported as “gastrointestinal upset”.
For `CC(=O)C(C)(N=O)C(C)=O` [3-methyl-3-nitroso-2,4-petanedione, 3-methyl-3-nitroso-2,4-pentanedione], the “pKa of the carbon acid from which the C-nitroso compound is obtained” value ([3]; pKa of the parent carbon acid, not of the C-nitroso compound) is given as “less than 10”, the “concentration at which relaxation effect is displayed” value ([1]; compound alone) is given as “greater than 10 micromolar” and the “concentration at which further relaxation effect is displayed” value ([1]; compound alone, FIG. 9) is given as “greater than 100 micromolar”. For the same compound, the “water solubility (in words)” value [2] was “not water soluble” and the “water solubility (in words)” value ([2]; listed as 3-methyl-3-nitroso-2,4-pentanedione) was “do not meet the definition of water solubility”.
With `CC(C)(N=O)C(=O)CCC(=O)Oc1ccccc1C(=O)O` [Compound (129a)] the “concentration at which relaxation effect is shown” value ([1]; compound alone, FIG. 1) was 10 µM.
